According to ChEMBL document CHEMBL1201862, “PubChem BioAssay data set” (2004):
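1) Cells in 96-well plates. 2) Compound, 48 h, 5 concentrations. 3) Linear interpolation between surrounding doses. 4) Unreached endpoint = highest concentration. Abbreviation: GI50, concentration required for 50% inhibition of growth.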 Activity calls are given as the source filed them. Rule as the data show it: active = GI50 up to about 1.1 µM and inactive = higher.

Assays:
Test in all cases: growth of human tumour cells (NCI), 48 h
786-0 = test system: 786-0
A498 = test system: A498
CAKI-1 = test system: CAKI-1
COLO 205 = test system: COLO 205
DU-145 = test system: DU-145
HCT-116 = test system: HCT-116
HL-60 = test system: HL-60
HOP-92 = test system: HOP-92
HT-29 = test system: HT-29
IGROV-1 = test system: IGROV-1
MDA-MB-435 = test system: MDA-MB-435
MOLT-4 = test system: MOLT-4
NCI-H522 = test system: NCI-H522
NCI/ADR-RES = test system: NCI/ADR-RES
OVCAR-4 = test system: OVCAR-4
SF-295 = test system: SF-295
UACC-257 = test system: UACC-257
Malme-3M = test system: Malme-3M

| SMILES | GI50 (786-0) | GI50 (A498) | GI50 (CAKI-1) | GI50 (COLO 205) | GI50 (DU-145) | GI50 (HCT-116) | GI50 (HL-60) | GI50 (HOP-92) | GI50 (HT-29) | GI50 (IGROV-1) | GI50 (MDA-MB-435) | GI50 (MOLT-4) | GI50 (NCI-H522) | GI50 (NCI/ADR-RES) | GI50 (OVCAR-4) | GI50 (SF-295) | GI50 (UACC-257) | GI50 (Malme-3M) |
| --- | --- | --- | --- | --- | --- | --- | --- | --- | --- | --- | --- | --- | --- | --- | --- | --- | --- | --- |
| Cc1cc(S(=O)(=O)Nc2nc3ccccc3[nH]2)c(S)cc1Cl | 46.5 µM (inactive) | > 100 µM (inactive) | 45 µM (inactive) | 82.2 µM (inactive) | > 100 µM (inactive) | 22.4 µM (inactive) | 35.5 µM (inactive) | 62.5 µM (inactive) | > 100 µM (inactive) | 61.5 µM (inactive) | 49.8 µM (inactive) | 30.4 µM (inactive) | 97.3 µM (inactive) | > 100 µM (inactive) | 61.4 µM (inactive) | 53.1 µM (inactive) | > 100 µM (inactive) | – |
| CCOC(=O)CCNC(=O)c1cc(C)cc2c1Oc1c(cc(C)cc1C(=O)NCCC(=O)OCC)S2 | 50 µM (inactive) | 27.2 µM (inactive) | 65.6 µM (inactive) | > 100 µM (inactive) | > 100 µM (inactive) | 24.9 µM (inactive) | > 100 µM (inactive) | 19.5 µM (inactive) | > 100 µM (inactive) | > 100 µM (inactive) | > 100 µM (inactive) | > 100 µM (inactive) | 40.6 µM (inactive) | 44.6 µM (inactive) | > 100 µM (inactive) | 53.5 µM (inactive) | 79.6 µM (inactive) | > 100 µM (inactive) |
| COc1cc2c(/C=C3/C(=O)Nc4cccc(Cl)c43)c(Cl)[nH]c2cc1C | 1.85 µM (inactive) | 8.67 µM (inactive) | 1.86 µM (inactive) | 1.95 µM (inactive) | 1.88 µM (inactive) | 1.49 µM (inactive) | 1.82 µM (inactive) | 8.17 µM (inactive) | 1.94 µM (inactive) | 1.59 µM (inactive) | 1.57 µM (inactive) | 0.366 µM (active) | 2.32 µM (inactive) | 1.65 µM (inactive) | 0.078 µM (active) | 1.69 µM (inactive) | 2.26 µM (inactive) | – |
| N#Cc1nc(-c2cccs2)oc1N | > 100 µM (inactive) | > 100 µM (inactive) | 3.09 µM (inactive) | > 100 µM (inactive) | > 100 µM (inactive) | > 100 µM (inactive) | 56.8 µM (inactive) | 90.2 µM (inactive) | > 100 µM (inactive) | > 100 µM (inactive) | > 100 µM (inactive) | > 100 µM (inactive) | 18.5 µM (inactive) | > 100 µM (inactive) | > 100 µM (inactive) | > 100 µM (inactive) | > 100 µM (inactive) | > 100 µM (inactive) |
| COc1ccc(C2SCC(=O)N2NC(=O)C(C)Oc2ccccc2C)cc1 (stereo not drawn) | > 100 µM (inactive) | 46 µM (inactive) | > 100 µM (inactive) | > 100 µM (inactive) | > 100 µM (inactive) | 57.5 µM (inactive) | 28.7 µM (inactive) | 29.2 µM (inactive) | 95.9 µM (inactive) | > 100 µM (inactive) | 82.8 µM (inactive) | 31 µM (inactive) | 56.6 µM (inactive) | 65.2 µM (inactive) | > 100 µM (inactive) | 60.8 µM (inactive) | > 100 µM (inactive) | > 100 µM (inactive) |
| CCOC(=O)COc1ccc(/C=C/C(=O)c2ccc(OC)cc2)cc1 | 20.8 µM (inactive) | 29.6 µM (inactive) | > 10 µM (inactive) | 35.4 µM (inactive) | 29.9 µM (inactive) | 21.3 µM (inactive) | 27 µM (inactive) | 16.6 µM (inactive) | 21.5 µM (inactive) | 45.2 µM (inactive) | 16.8 µM (inactive) | 42.9 µM (inactive) | 22.3 µM (inactive) | 44.7 µM (inactive) | – | 29 µM (inactive) | 23.1 µM (inactive) | 28.2 µM (inactive) |
| c1ccc(C2=Nc3cccc4cccc(c34)N2)cc1 | 42.8 µM (inactive) | > 100 µM (inactive) | 37.2 µM (inactive) | 18.6 µM (inactive) | > 90.2 µM (inactive) | 23.3 µM (inactive) | 2.88 µM (inactive) | 24.4 µM (inactive) | 43.5 µM (inactive) | > 54.6 µM (inactive) | 48.8 µM (inactive) | – | 12.2 µM (inactive) | 30.8 µM (inactive) | 18.7 µM (inactive) | 58.2 µM (inactive) | > 69.5 µM (inactive) | 43.5 µM (inactive) |
| C1=C(c2ccccc2)SC=C(c2ccccc2)S1 | > 100 µM (inactive) | 17.9 µM (inactive) | 60.4 µM (inactive) | 30.1 µM (inactive) | > 100 µM (inactive) | 44.5 µM (inactive) | 65.9 µM (inactive) | 17.1 µM (inactive) | 24.9 µM (inactive) | 19.9 µM (inactive) | 5.48 µM (inactive) | 25.3 µM (inactive) | – | 19.9 µM (inactive) | 32.4 µM (inactive) | 29.2 µM (inactive) | 57.7 µM (inactive) | 45.5 µM (inactive) |
| CC(C)=CCC[C@@H](C)C1=C(O)C(=O)C(C)=C(Nc2ccccc2Br)C1=O | 13.3 µM (inactive) | 7.19 µM (inactive) | 18.6 µM (inactive) | 15.9 µM (inactive) | 14.4 µM (inactive) | 18.1 µM (inactive) | 2.73 µM (inactive) | 11.6 µM (inactive) | 19.6 µM (inactive) | 8.69 µM (inactive) | 19.9 µM (inactive) | 4.09 µM (inactive) | – | 3.78 µM (inactive) | 6.52 µM (inactive) | 3.85 µM (inactive) | 14.9 µM (inactive) | 9.4 µM (inactive) |
| O=c1c2cc(I)ccc2nc(SCc2nncs2)n1Cc1ccccc1 | 15 µM (inactive) | 19.7 µM (inactive) | 2.15 µM (inactive) | 20.2 µM (inactive) | 23.1 µM (inactive) | 11.6 µM (inactive) | 22.1 µM (inactive) | 3.34 µM (inactive) | 31.8 µM (inactive) | 3.89 µM (inactive) | 19.2 µM (inactive) | 8.3 µM (inactive) | 4.78 µM (inactive) | > 100 µM (inactive) | 12.6 µM (inactive) | 13.2 µM (inactive) | 10.5 µM (inactive) | – |
| O=c1[nH]c2ccccc2c(=O)n1/N=C/c1ccc(O)cc1 | 30.8 µM (inactive) | > 100 µM (inactive) | > 100 µM (inactive) | > 100 µM (inactive) | > 100 µM (inactive) | > 100 µM (inactive) | > 100 µM (inactive) | 26.1 µM (inactive) | > 100 µM (inactive) | > 100 µM (inactive) | > 100 µM (inactive) | > 100 µM (inactive) | – | 50.9 µM (inactive) | – | 50.7 µM (inactive) | > 100 µM (inactive) | – |
| COc1cc2ccc1OCc1cccc(n1)COc1ccc(cc1OC)/C=N\CCNCCNCC/N=C\2 | > 100 µM (inactive) | > 100 µM (inactive) | > 100 µM (inactive) | > 100 µM (inactive) | > 100 µM (inactive) | > 100 µM (inactive) | 53.5 µM (inactive) | > 100 µM (inactive) | > 100 µM (inactive) | > 100 µM (inactive) | > 100 µM (inactive) | 46.5 µM (inactive) | > 100 µM (inactive) | > 100 µM (inactive) | > 100 µM (inactive) | – | > 100 µM (inactive) | > 100 µM (inactive) |
| COc1ccc(Nc2nc(NNC(=O)Cc3ccccc3)nc(NNC(=O)c3ccncc3)n2)cc1 | > 10 µM (inactive) | > 10 µM (inactive) | > 10 µM (inactive) | > 10 µM (inactive) | > 10 µM (inactive) | > 10 µM (inactive) | – | > 10 µM (inactive) | > 10 µM (inactive) | > 10 µM (inactive) | > 10 µM (inactive) | > 10 µM (inactive) | > 10 µM (inactive) | > 10 µM (inactive) | > 10 µM (inactive) | > 10 µM (inactive) | > 10 µM (inactive) | > 10 µM (inactive) |
| C/C(=N\Nc1nc2ccccc2s1)c1cccc[n+]1[O-] | 47.1 µM (inactive) | > 100 µM (inactive) | 32.4 µM (inactive) | 32.2 µM (inactive) | > 100 µM (inactive) | 7.55 µM (inactive) | – | 13.5 µM (inactive) | 41.5 µM (inactive) | 21.7 µM (inactive) | 99.1 µM (inactive) | 1.81 µM (inactive) | 26.7 µM (inactive) | 29.7 µM (inactive) | 86.3 µM (inactive) | 0.594 µM (active) | 40.1 µM (inactive) | 1.09 µM (active) |
| Clc1nc(NC23CC4CC(CC(C4)C2)C3)nc(NC23CC4CC(CC(C4)C2)C3)n1 | 52.5 µM (inactive) | > 100 µM (inactive) | > 100 µM (inactive) | > 67.3 µM (inactive) | 56.6 µM (inactive) | 15.6 µM (inactive) | 19.9 µM (inactive) | 17.3 µM (inactive) | 66.1 µM (inactive) | > 100 µM (inactive) | 92.3 µM (inactive) | 17.5 µM (inactive) | – | 46 µM (inactive) | 83 µM (inactive) | 16.4 µM (inactive) | 50.7 µM (inactive) | > 100 µM (inactive) |
| NCCN1C(=O)c2cc(Cl)c(Cl)cc2C1(O)c1ccc(Cl)cc1 (stereo not drawn) | 1.61 µM (inactive) | 2.92 µM (inactive) | 2.54 µM (inactive) | 1.65 µM (inactive) | 2.69 µM (inactive) | 1.72 µM (inactive) | 1.67 µM (inactive) | 2.91 µM (inactive) | 1.89 µM (inactive) | 2.07 µM (inactive) | 1.68 µM (inactive) | 2.05 µM (inactive) | – | 2.42 µM (inactive) | 1.76 µM (inactive) | 2.01 µM (inactive) | 1.87 µM (inactive) | 1.71 µM (inactive) |
